In patent US20260153494A1 (AGRICUL TURAL UNIVERSITY OF ATHENS, priority 2023, published 2026):
Values joined by “and” are separate entries in the source; they are usually repeats but may differ in a detail not shown here. Equal values may be shown once.

What was measured:
[1] = system: Immobilized FGGsh155:CB[8] hexamer (GSTF mutant sh155, FGG-tagged, SEQ ID NO: 2, with cucurbit[8]uril 1:1, on glutaraldehyde-crosslinked chitosan); test: Butachlor inhibition (IC50) of immobilized FGGsh155:CB[8]; assay type: biochemical; conditions: immobilized on chitosan carrier vs free enzyme
Method: FIG. 21 (A-B): Dose-response inhibition curves of FGGsh155:CB[8] due to the herbicide butachlor for the determination of IC50 value. FIG. 21A. before and FIG. 21B. after immobilization. The data represent the mean±SD (N=3).
(§1) The half maximal inhibitory concentration (IC50), namely the inhibitor concentration that leads to 50% inhibition of the enzyme activity of FGGsh155:CB[8], was determined for constant substrate concentrations and varying butachlor concentrations. The utilised substrate concentrations were equal to the kinetic constant value of S0.5 for CDNB and 2.5 times the CDNB concentration for GSH. The correlation between the butachlor concentration from 0 to 600 nM (0 to 0.6 μM) and the remaining activity (%) of the immobilized enzyme was linear, thus standard curves for known herbicide concentrations were developed. The methodology was tested for drinking water samples derived from the Athens water supply network, as well as commercial mineral water (see Example 11). The results were analysed with the Graphpad Prism software.

[2] = system: sh155 dimer (phi class glutathione S-transferase GSTF mutant derived by DNA shuffling, SEQ ID NO: 2); test: Kinetic inhibition analysis with butachlor, dimer sh155; assay type: biochemical; conditions: constant GSH, variable CDNB
Description: (§2) FIG. 22 (A-J): Kinetic inhibition analysis of the dimer enzyme sh155 (FIG. 22A, 22C, 22E, 22G, 22I) and the hexamer FGGsh155:CB[8] (FIGS. 22B, 22D, 22F, 22H, 22J). A. & B. Lineweaver-Burk plots for the inhibition of the enzymes by different concentrations of butachlor, at constant concentration of GSH and variable concentration of CDNB. C. & D. Secondary (derivative) graph. The slope values were derived from the Lineweaver-Burk graphs (A) & (B). The intersection point with the x axis corresponds to Ki. E. & F. Secondary (derivative) graph where the data are derived from the Lineweaver-Burk graphs (A) & (B). The intersection point with the x axis corresponds to K. G. & H. Lineweaver-Burk plots for the inhibition of the enzymes by different concentrations of butachlor, at constant concentration of CDNB and variable concentration of GSH. […]. Secondary (derivative) graph. The slope values were derived from the Lineweaver-Burk graphs […], and the intersection point with the x axis corresponds to Ki.
(§3) Kinetic analysis in presence of butachlor aimed to characterize of the type of inhibition, thus the binding site of the inhibitor, as well as to identify possible differences in kinetic behavior between the GST dimer form (sh155) and the hexamer FGGsh155:CB[8] that was used in the immobilization. […]

[3] = system: FGGsh155:CB[8] hexamer (FGG-tagged phi class glutathione S-transferase GSTF mutant sh155, SEQ ID NO: 2, with cucurbit[8]uril 1:1); test: Kinetic inhibition analysis with butachlor, hexamer FGGsh155:CB[8]; assay type: biochemical; conditions: constant GSH, variable CDNB
Description: as §2, §3

FGGsh155:CB[8] = FGGsh155:CB[8] (Triticum aestivum, UniProt Z9G7Y6U750); test: Inhibition of free FGGsh155:CB[8] by butachlor (IC50, kinetic inhibition analysis); assay type: biochemical
Method: as §1, with “The correlation between the butachlor concentration from 0 to 600 nM (0 to 0.6 μM) and the remaining activity (%) of the immobilized enzyme was linear, thus standard curves for known herbicide concentrations were developed.” left out
(§4) Kinetic analysis in presence of butachlor aimed to characterize of the type of inhibition, thus the binding site of the inhibitor, as well as to identify possible differences in kinetic behavior between the GST dimer form (sh155) and the hexamer FGGsh155:CB[8] that was used in the immobilization. […] In the mixed inhibition pattern all of the kinetic constants (Km, kcat) change, and the inhibitor is able to bind to both the free enzyme (Ki) and the enzyme-substrate complex (Ki′) with different affinities. […] This type of inhibition is a sub-case of the mixed inhibition pattern where Ki=Ki′, i.e. the velocity of the reaction is decreased without affecting the affinity with the substrate. In this inhibition type, the inhibitor and the substrate bind independently at different enzyme sites.

[4] = target: T1, immobilized FGGsh155:CB[8] (Triticum aestivum, UniProt Z9G7Y6U750); test: Inhibition of immobilized FGGsh155:CB[8] by butachlor (IC50); assay type: biochemical; conditions: after immobilization on the chitosan carrier
Method: as §1

sh155 = sh155 (Triticum aestivum, UniProt Z9G7Y6U750); test: Kinetic inhibition analysis of dimer sh155 by butachlor; assay type: biochemical
Description: as §4

[5] = target: T1, immobilized FGGsh155:CB[8]; test: Determination of butachlor in spiked water samples with the immobilized enzyme biosensor
Method: as §1
The basis for the detection of the herbicide butachlor in water samples was the determination of inhibition induced in the immobilized enzyme form. […] The linear response of inhibition of the immobilized enzyme due to butachlor was described by the equation y=−101.3x+98.07, R^2=0.991 (FIG. 23A). This observation led to the development of a methodology for determination of butachlor in drinking water samples based on the detection of inhibition as determined by a standard reference curve. Accordingly, standard curves were generated for spiked, with known concentrations of butachlor, samples of drinking water from the Athens' supply network (y=−81.84x+98.81, R^2=0.997) and bottled mineral water (y=−72.69x+99.46, R^2=0.995) (FIG. 23B). The detection range of butachlor with this methodology was determined up to 180 μg/L (600 nM) in water samples, with the acceptable amount of a pesticide in surface water at 1.0 μg/L and in drinking water at 0.1 μg/L (Council Directive 98/83/EC). The detection range up to 0.6 μM (180 μg/L) of the developed biosensor, with detection limit at approximately 31 μg/L for butachlor, achieves comparatively high sensitivity and selectivity.
The methodology was evaluated with recovery experiments of spiked drinking water samples, with known but random concentrations of butachlor within the range of the standard curve. […] The correlation between the added and found butachlor tested concentrations for network supply water (R^2 0.9993, p<0.0001) and mineral water (R^2 0.9987, p<0.0001) is depicted in FIG. 23C & 23D.

[6] = buffer; cited from earlier work
human lymphocytes = conditions: cited from earlier work
[7] = towards CDNB (variable CDNB, constant GSH), binding to free enzyme
[8] = towards CDNB, binding to enzyme-substrate complex
[9] = towards GSH (variable GSH, constant CDNB)

SMILES: CCCCOCN(C(=O)CCl)c1c(CC)cccc1CC [Butachlor, 2-chloro-2,6-diethyl-N-butoxymethyl-acetanilide]
- increase in sensitivity for butachlor after immobilization (IC50 immobilized vs free enzyme) [1]: ten-fold increase in sensitivity
- type of inhibition towards CDNB [2]: mixed type inhibition with Ki<Ki′
- type of inhibition towards CDNB [3]: mixed type inhibition with Ki<Ki′

SMILES: CCCCOCN(C(=O)CCl)c1c(CC)cccc1CC [butachlor, 2-chloro-2,6-diethyl-N-butoxymethyl-acetanilide]
- type of inhibition towards GSH (FGGsh155:CB[8]): non-competitive inhibition
- type of inhibition towards the CDNB substrate (FGGsh155:CB[8]): mixed type inhibition
- IC50 (FGGsh155:CB[8]; free enzyme, before immobilization): 5.14 ± 0.16 µM
- Ki (FGGsh155:CB[8]; [7]): 4.42 µM
- Ki (FGGsh155:CB[8]; [8]): 21.1 µM
- Ki (FGGsh155:CB[8]; [9]): 13.2 µM
- IC50 [4]: 0.56 ± 0.02 µM
- type of inhibition towards GSH (sh155): non-competitive inhibition
- type of inhibition towards the CDNB substrate (sh155): mixed type inhibition
- Ki (sh155; [7]): 5.92 µM
- Ki (sh155; [8]): 22.6 µM
- Ki (sh155; [9]): 13.3 µM
- Found butachlor ([5]; Athens water supply network, added 0.05 μM): 0.046 ± 0.003 µM
- Found butachlor ([5]; Athens water supply network, added 0.2 μM): 0.191 ± 0.001 µM
- Found butachlor ([5]; Athens water supply network, added 0.3 μM): 0.308 ± 0.008 µM
- Found butachlor ([5]; Athens water supply network, added 0.4 μM): 0.416 ± 0.005 µM
- Found butachlor ([5]; Athens water supply network, added 0.6 μM): 0.617 ± 0.003 µM
- Found butachlor ([5]; Bottled mineral water, added 0.1 μM): 0.095 ± 0.005 µM
- Found butachlor ([5]; Bottled mineral water, added 0.2 μM): 0.215 ± 0.005 µM
- Found butachlor ([5]; Bottled mineral water, added 0.3 μM): 0.307 ± 0.005 µM
- Found butachlor ([5]; Bottled mineral water, added 0.4 μM): 0.413 ± 0.012 µM
- Found butachlor ([5]; Bottled mineral water, added 0.55 μM): 0.56 ± 0.010 µM
- detection limit ([5]; developed biosensor): approximately 31 μg/L
- detection range ([5]; water samples): up to 180 μg/L and ≤ 600 nM
- half-life [6]: up to 2.5 days
- frequency of chromosomal abnormalities (human lymphocytes): dose-dependent increase in the frequency of chromosomal abnormalities
